Assays:
Type in all cases: cell-based
[1] = system: HCC1954; assay: Cell growth inhibition test, HCC1954; conditions: Homo sapiens, 72 h; HCC1954, Breast cancer, 3 days, CellTiter-Glo
Method: (§1) A cell growth inhibition test was carried out by treating a cultured cancer cell line with a test compound for a given period and then counting the number of viable cells by CellTiter-Glo Luminescent Cell Viability Assay (manufactured by Promega Corp.).
(§2) The following cells were inoculated to a 384-well plate containing the compound prepared in advance at predetermined concentrations. […]
(§3) The cells thus inoculated were cultured at 37° C. for 3 days under 5% CO2. […] Then, luminescence intensity was measured using a plate reader.
(§4) The number of viable cells and luminescence intensity have been confirmed to correlate with each other. Therefore, the rate of cell growth was calculated according to the following expression: Rate of cell growth (T/C %) of a test compound-supplemented well=100×[(B−C)/(A−C)] wherein A represents the luminescence intensity (final culture date) of a test compound-free well; B represents the luminescence intensity (final culture date) of a test compound-containing well; and C represents the luminescence intensity (day of cell inoculation) of a well at the start of contact of the cells with the test compound.
(§5) T/C % at the concentration of each of the serially diluted test compounds was determined. […]

[2] = system: A549; assay: Cell growth inhibition test, A549; conditions: Homo sapiens, 72 h; A549, Lung cancer, 3 days, CellTiter-Glo
Method: as §1, §2, §3, §4, §5

[3] = system: BxPC-3; assay: Cell growth inhibition test, BxPC-3; conditions: Homo sapiens, 72 h; BxPC-3, Pancreatic cancer, 3 days, CellTiter-Glo
Method: as §1, §2, §3, §4, §5

[4] = system: U266B1; assay: Cell growth inhibition test, U266B1; conditions: Homo sapiens, 72 h; U266B1, Multiple myeloma, 3 days, CellTiter-Glo
Method: as §1, §2, §3, §4, §5

[5] = system: human lymphoma cell line RAMOS cells; assay: Cell growth inhibition test using RAMOS cell, ATP assay (CellTiter-Glo); conditions: Homo sapiens, Ramos, 72 h, cultured 3 days, 50% growth inhibition concentration
Method in brief: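 RAMOS cells seeded at 4000 cells/well with compound and cultured 3 days at 37° C, 5% CO2; viability by CellTiter-Glo luminescence. Growth rate T/C % = 100×[(B−C)/(A−C)] using day-0 and final readings; GI50 interpolated from the two concentrations bracketing 50% growth.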

[6] = system: RKO; assay: Cell growth inhibition test, RKO; conditions: Homo sapiens, 72 h, Large intestine cancer, 3 days, CellTiter-Glo
Method: as §1, §2, §3, §4, §5

[7] = system: BT-20; assay: Cell growth inhibition test, BT-20; conditions: Homo sapiens, 72 h; BT-20, Breast cancer, 3 days, CellTiter-Glo
Method: as §1, §2, §3, §4, §5

[8] = system: A-498; assay: Cell growth inhibition test, A-498; conditions: Homo sapiens, A498, 72 h; A-498, Kidney cancer, 3 days, CellTiter-Glo
Method: as §1, §2, §3, §4, §5

[9] = system: SW948; assay: Cell growth inhibition test, SW948; conditions: Homo sapiens, 72 h; SW948, Large intestine cancer, 3 days, CellTiter-Glo
Method: as §1, §2, §3, §4, §5

[10] = system: MDA-MB-231; assay: Cell growth inhibition test, MDA-MB-231; conditions: Homo sapiens, 72 h; MDA-MB-231, Breast cancer, 3 days, CellTiter-Glo
Method: as §1, §2, §3, §4, §5

[11] = system: SK-MEL-28; assay: Cell growth inhibition test, SK-MEL-28; conditions: Homo sapiens, 72 h; SK-MEL-28, Skin cancer, 3 days, CellTiter-Glo
Method: as §1, §2, §3, §4, §5

[12] = system: NCI-H1975; assay: Cell growth inhibition test, NCI-H1975; conditions: Homo sapiens, 72 h; NCI-H1975, Lung cancer, 3 days, CellTiter-Glo
Method: as §1, §2, §3, §4, §5

[13] = system: MDA-MB-468; assay: Cell growth inhibition test, MDA-MB-468; conditions: Homo sapiens, 72 h; MDA-MB-468, Breast cancer, 3 days, CellTiter-Glo
Method: as §1, §2, §3, §4, §5

[14] = system: K-562; assay: Cell growth inhibition test, K-562; conditions: Homo sapiens, K562, 72 h; K-562, Leukemia, 3 days, CellTiter-Glo
Method: as §1, §2, §3, §4, §5

[15] = system: DU 145; assay: Cell growth inhibition test, DU 145; conditions: Homo sapiens, 72 h; DU 145, Prostate cancer, 3 days, CellTiter-Glo
Method: as §1, §2, §3, §4, §5

| SMILES | GI50 [1] [nM] | GI50 [2] [nM] | GI50 [3] [nM] | GI50 [4] [nM] | GI50 [5] [nM] | GI50 [6] [nM] | GI50 [7] [nM] | GI50 [8] [nM] | GI50 [9] [nM] | GI50 [10] [nM] | GI50 [11] [nM] | GI50 [12] [nM] | GI50 [13] [nM] | GI50 [14] [nM] | GI50 [15] [nM] |
| --- | --- | --- | --- | --- | --- | --- | --- | --- | --- | --- | --- | --- | --- | --- | --- |
| CCOc1ncc(Cl)cc1C(=O)NCC(C)(C)CC(=O)Nc1c([C@H](C)CN(C)C)n(C)n(-c2ccccc2)c1=O [Example 73, 5-Chloro-N-[4-({5-[(1R)-2-(dimethylamino)-1-methylethyl]-1-methyl-3-oxo-2-phenyl-2,3-dihydro-1H-pyrazol-4-yl}amino)-2,2-dimethyl-4-oxobutyl]-2-ethoxypyridine-3-carboxamide] | 920 | 2000 | 440 | 620 | 310 | 570 | 1300 | 940 | 4200 | 890 | 920 | 900 | 510 | 560 | 1100 |
| CCOc1cc(F)c(Cl)cc1C(=O)NCC(C)(C)CC(=O)Nc1c(COC)n(C)n(-c2ccccc2)c1=O [Example 113, 5-Chloro-2-ethoxy-4-fluoro-N-(4-{[5-(methoxymethyl)-1-methyl-3-oxo-2-phenyl-2,3-dihydro-1H-pyrazol-4-yl]amino}-2,2-dimethyl-4-oxobutyl)benzamide] | 720 | 1100 | 370 | 440 | 130 | 310 | 850 | 430 | 1400 | 770 | 800 | 810 | 320 | 630 | 650 |
| CCOc1ccc(Cl)cc1C(=O)NCC(C)(C)CC(=O)Nc1c([C@H](C)CN(C)C)n(C)n(-c2ccccc2)c1=O [Example 68, 5-Chloro-N-[4-({5-[(1R)-2-(dimethylamino)-1-methylethyl]-1-methyl-3-oxo-2-phenyl-2,3-dihydro-1H-pyrazol-4-yl}amino)-2,2-dimethyl-4-oxobutyl]-2-ethoxybenzamide] | 340 | 910 | 220 | 220 | 140 | 240 | 590 | 540 | 3900 | 350 | 590 | 490 | 170 | 240 | 530 |
